Values of other authors as cited in patent publication US20160081915A1, “TRANSDERMAL FORMULATIONS OF FLUTICASONE” (STRATEGIC SCIENCE & TECHNOLOGIES, LLC, priority 2013, published 2016).

Conditions: oral; extensive first-pass metabolism in the liver

C[C@@H]1C[C@H]2[C@@H]3C[C@H](F)C4=CC(=O)C=C[C@]4(C)[C@@]3(F)[C@@H](O)C[C@]2(C)[C@@]1(O)C(=O)SCF [fluticasone]
half-life when delivered orally: about 7.8 hours
